# In US20130267494A1, “1,4-OXAZEPANE DERIVATIVES” (priority 2010, published 2013):
# Counter-ions that a name gives are not always drawn.
# System: SD female rats
# Assay: Measurement of urethral resistance increasing effect (leak point pressure, intravenous administration)
# Type: in vivo, rat
# Details: for urethral resistance increasing effect (cmH2O): SD female rats
# Protocol: The urethral resistance increasing effect in rat was measured by a modified method of Matsumoto et al. (WO2009/063992) as follows. That is, SD female rats (CLEA Japan, Inc.) were anesthetized with isoflurane (1.0%; Abbott), and the spinal cord was transected at Th8-9 to avoid the voiding reflex. After laparotomy, an intravesical pressure measurement catheter and a saline infusion catheter (PE-100; Clay Adams) were inserted into the bladder. Thereafter, the abdomen of the rat was closed with aronalpha A “Sankyo” (Daiichi Sankyo). The rat with an inserted catheter was placed in a Bollman cage (KN-326 Bollman cage TYPE III; Natsume). The intravesical pressure measurement catheter was connected to a computer via a pressure transducer (REF685640; Nihon Koden), an amplifier (RPM-6008M; Nihon Koden), and a multi-channel data analyzer (MP150; Biopack), and changes in the intravesical pressure were recorded on a hard disc at a frequency of 100 samples/sec. The saline infusion catheter was connected to a 50 mL syringe (Terumo) filled with saline colored with Evans Blue (Wako). The saline was infused into the bladder from the 50 mL syringe filled with saline at a rate of 0.1 mL/sec by using an infusion pump (Kds100; KD Scientific). When the saline leaked from the urethral orifice, infusion was discontinued, and the saline in the bladder was released. The maximum pressure observed during infusion of saline into the bladder and leakage thereof was taken as an LPP (Leak point pressure) value. The measurement was repeated until the LPP value was stabilized, and an average of continuous three stable LPP values was taken as the result. […] The LPP value (Pre value) was measured, a drug was intravenously administered, and the measurement of LPP value (Post value) was again started 10 min after administration. […]
# The compound of Example 6 (0.3 mg/kg), the compound of Example 6 (1.0 mg/kg) and the vehicle were administered to the rats, and the urethral resistance increasing effect was measured by the aforementioned method.
smiles,measurement,setting,value
"CC(=O)NC[C@H]1CNCCO[C@@H]1c1ccc(Cl)c(Cl)c1 (racemic) [Example 6, N-{[(6RS,7SR)-7-(3,4-dichlorophenyl)-1,4-oxazepan-6-yl]methyl}acetamide monohydrochloride]",urethral resistance increasing effect (cmH2O),dose 0.3 mg/kg,12.8 ± 1.1 cmH2O
same,urethral resistance increasing effect (cmH2O),dose 1.0 mg/kg,19.1 ± 1.8 cmH2O
same,urethral resistance increasing effect (LPP Post value minus Pre value) compared to vehicle,"spinal cord-transected SD female rats, intravenous 0.3 and 1.0 mg/kg, LPP measured from 10 min after administration, Williams' test",dose-dependent and significant urethral resistance increasing effect
